Test results taken from a compilation of properties of binary mixtures (doi:10.1039/c2cc30374d).

Assay: xn = mol fraction of the nth substance listed
Details: 101 kPa

[N-]=C=S.[NH4+] + CC(=O)[O-].CC[n+]1ccn(C)c1
Details | electrical conductivity [S/m] | viscosity [mPa·s]
298.15 K, x1 = 0.02 | 0.294 | 136.6
298.15 K, x1 = 0.1002 | 0.284 | 160.2
298.15 K, x1 = 0.1998 | 0.296 | 190.7
298.15 K, x1 = 0.2514 | 0.314 | 198.6
298.15 K, x1 = 0.3413 | 0.358 | 196.4
303.15 K, x1 = 0.02 | 0.382 | 100.9
303.15 K, x1 = 0.2514 | 0.411 | 144.4
303.15 K, x1 = 0.3199 | 0.458 | 142.8
303.15 K, x1 = 0.3413 | 0.463 | 143.6
308.15 K, x1 = 0.02 | 0.483 | 76.4
308.15 K, x1 = 0.1002 | 0.473 | 88.5
308.15 K, x1 = 0.3001 | 0.569 | 105.9
308.15 K, x1 = 0.3199 | 0.58 | 106.6
313.15 K, x1 = 0.02 | 0.601 | 59.3
313.15 K, x1 = 0.1002 | 0.593 | 68.1
313.15 K, x1 = 0.1998 | 0.617 | 79.3
313.15 K, x1 = 0.2514 | 0.66 | 81.5
313.15 K, x1 = 0.3001 | 0.782 | 80.5
313.15 K, x1 = 0.3199 | 0.797 | 81.1
318.15 K, x1 = 0.02 | 0.82 | 46.9
318.15 K, x1 = 0.1002 | 0.811 | 53.3
318.15 K, x1 = 0.2514 | 0.901 | 62.9
318.15 K, x1 = 0.3001 | 0.968 | 62.3
318.15 K, x1 = 0.3199 | 0.986 | 62.8
318.15 K, x1 = 0.3413 | 0.997 | 63.3
323.15 K, x1 = 0.02 | 0.986 | 37.8
323.15 K, x1 = 0.1002 | 0.987 | 42.5
323.15 K, x1 = 0.1998 | 1.04 | 48.4
323.15 K, x1 = 0.2514 | 1.1 | 49.3
323.15 K, x1 = 0.3001 | 1.18 | 48.9
323.15 K, x1 = 0.3199 | 1.2 | 49.3
323.15 K, x1 = 0.3413 | 1.21 | 49.8
328.15 K, x1 = 0.02 | – | 30.91
328.15 K, x1 = 0.1998 | – | 38.62
328.15 K, x1 = 0.2514 | – | 39.15
328.15 K, x1 = 0.3001 | – | 38.91
328.15 K, x1 = 0.3413 | – | 39.67
333.15 K, x1 = 0.2514 | – | 31.49
333.15 K, x1 = 0.3199 | – | 31.67
333.15 K, x1 = 0.3413 | – | 32

CC(=O)[O-].CC[n+]1ccn(C)c1 + [N-]=C=S.[NH4+]
x2 = 0
Details | electrical conductivity [S/m] | viscosity [mPa·s]
298.15 K | 0.295 | 128.4
303.15 K | 0.383 | 95.1
308.15 K | 0.483 | 72.4
318.15 K | 0.819 | 44.8
323.15 K | 0.984 | 36.27
328.15 K | – | 29.81
333.15 K | – | 24.86

[N-]=C=S.[NH4+] + CCOS(=O)(=O)[O-].CC[n+]1ccn(C)c1
Details | electrical conductivity [S/m] | viscosity [mPa·s]
298.15 K, x1 = 0.1553 | 0.319 | 150
298.15 K, x1 = 0.4042 | 0.279 | 231.1
298.15 K, x1 = 0.5205 | 0.281 | 224
298.15 K, x1 = 0.565 | 0.295 | 215.9
298.15 K, x1 = 0.5997 | 0.301 | 208.9
303.15 K, x1 = 0.0235 | 0.461 | 81.3
303.15 K, x1 = 0.1553 | 0.398 | 118
303.15 K, x1 = 0.3025 | 0.358 | 163.3
303.15 K, x1 = 0.4042 | 0.353 | 178.7
303.15 K, x1 = 0.5205 | 0.358 | 173.4
303.15 K, x1 = 0.5997 | 0.385 | 168.2
308.15 K, x1 = 0.0235 | 0.56 | 65.16
308.15 K, x1 = 0.1553 | 0.486 | 94.3
308.15 K, x1 = 0.5205 | 0.446 | 135.3
308.15 K, x1 = 0.565 | 0.468 | 133.9
308.15 K, x1 = 0.5997 | 0.481 | 133.7
313.15 K, x1 = 0.0235 | 0.67 | 53.09
313.15 K, x1 = 0.1553 | 0.584 | 76.57
313.15 K, x1 = 0.3025 | 0.531 | 104.6
313.15 K, x1 = 0.4042 | 0.526 | 112.9
313.15 K, x1 = 0.5205 | 0.546 | 107.5
313.15 K, x1 = 0.565 | 0.573 | 106
318.15 K, x1 = 0.0235 | 0.846 | 43.86
318.15 K, x1 = 0.1553 | 0.739 | 63.03
318.15 K, x1 = 0.3025 | 0.633 | 85.6
318.15 K, x1 = 0.4042 | 0.633 | 91.8
318.15 K, x1 = 0.5997 | 0.751 | 84.6
323.15 K, x1 = 0.0235 | 0.99 | 36.68
323.15 K, x1 = 0.1553 | 0.867 | 52.56
323.15 K, x1 = 0.3025 | 0.795 | 70.9
323.15 K, x1 = 0.4042 | 0.795 | 75.6
323.15 K, x1 = 0.5205 | 0.831 | 71.22
323.15 K, x1 = 0.5997 | 0.896 | 68.92
328.15 K, x1 = 0.0235 | – | 31.04
328.15 K, x1 = 0.1553 | – | 44.26
328.15 K, x1 = 0.3025 | – | 59.41
328.15 K, x1 = 0.4042 | – | 63.04
328.15 K, x1 = 0.5205 | – | 59.16
328.15 K, x1 = 0.565 | – | 57.79
328.15 K, x1 = 0.5997 | – | 56.96
333.15 K, x1 = 0.1553 | – | 37.68
333.15 K, x1 = 0.5205 | – | 49.72
333.15 K, x1 = 0.565 | – | 48.47

CCOS(=O)(=O)[O-].CC[n+]1ccn(C)c1 + [N-]=C=S.[NH4+]
x2 = 0
Details | electrical conductivity [S/m] | viscosity [mPa·s]
298.15 K | 0.38 | 95.9
303.15 K | 0.468 | 75.63
308.15 K | 0.566 | 60.66
313.15 K | 0.675 | 49.45
318.15 K | 0.856 | 40.88
323.15 K | 1 | 34.24
328.15 K | – | 28.99
333.15 K | – | 24.81
